# Measurements from patent US5597823A, “Tricyclic substituted hexahydrobenz [e]isoindole alpha-1 adrenergic antagonists” (priority 1995, dated 1997).
# Counter-ions that a name gives are not always drawn.
# Molecular target: T1, α-1A adrenoceptor (dog prostate) (Canis lupus, UniProt A0A8I3NK63)
# T1 sequence (A0A8I3NK63 1-466): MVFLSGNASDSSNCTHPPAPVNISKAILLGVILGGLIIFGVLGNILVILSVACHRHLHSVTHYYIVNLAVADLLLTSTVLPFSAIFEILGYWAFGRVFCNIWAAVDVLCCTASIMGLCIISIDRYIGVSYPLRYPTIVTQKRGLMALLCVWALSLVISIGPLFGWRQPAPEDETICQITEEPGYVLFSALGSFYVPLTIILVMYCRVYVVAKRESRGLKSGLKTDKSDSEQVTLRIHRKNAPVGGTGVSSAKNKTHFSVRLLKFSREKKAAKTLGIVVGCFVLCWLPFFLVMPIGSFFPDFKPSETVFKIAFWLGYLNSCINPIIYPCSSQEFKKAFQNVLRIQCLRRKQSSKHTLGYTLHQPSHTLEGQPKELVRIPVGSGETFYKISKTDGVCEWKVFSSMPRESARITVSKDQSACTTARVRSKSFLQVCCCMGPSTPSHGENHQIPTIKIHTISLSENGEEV
# Experiment: Functional antagonism: phenylephrine (PE)-induced contraction of canine prostate strips
# Assay type: cell-based
# Settings: Table 2b; vs phenylephrine; Schild plot
# From the text: Functional assays indicative of pharmacologically defined α-1 adrenoceptors were used to further characterize compounds. Inhibition of phenylephrine (PE)-induced contraction of canine prostate smooth muscle can be correlated with α-1A adrenoceptor activation. […] For each of these models, agonist dose response curves were repeated against increasing concentrations of test agent to derive a Schild plot [log ([…]) against log (molarity of test agent)] to determine the pA2.
# Canine prostate strips were used in vitro as previously described (Hieble, J. P., Boyce, A. J. and Caine, M., Fed. Proc., 45:2609-2614 (1986)), to determine antagonist potencies against phenylephrine-induced contractions.
row,Compound,pA2 Dog Prostate [α-1A]
1,"COc1cccc2c1CC[C@H]1CN(CCn3c(=O)[nH]c4c(sc5c(Cl)cccc54)c3=O)C[C@@H]21 [Example 56, 3-[2-((3aR,9bR)-cis-6-Methoxy-2,3,3a,4,5,9b-hexahydro-[1H]-benz[e]isoindol-1-yl)ethyl]-[1]-6-chloro-benzothieno[3,2-d]pyrimidine-2,4(1H,3H)-dione hydrochloride]",7.11
2,"COc1cccc2c1CC[C@H]1CN(CCn3c(=O)[nH]c4c(sc5cccnc54)c3=O)C[C@@H]21 [Example 37, dihydrochloride]",9.15
3,"COc1cccc2c1CC[C@H]1CN(CCn3c(=O)[nH]c4c(sc5cccc(OC)c54)c3=O)C[C@@H]21 [Example 73, 3-[2-((3aR,9bR)-cis-6-Methoxy-2,3,3a,4,5,9b-hexahydro-[1H]-benz[e]isoindol-1-yl)ethyl]-[1]-9-methoxy-benzothieno[3,2-d]pyrimidine-2,4(1H,3H)-dione hydrochloride]",8.42
4,"COc1cccc2c1CC[C@H]1CN(CCn3c(=O)[nH]c4c(sc5cccc(C#N)c54)c3=O)C[C@@H]21 [Example 54, 3-2-((3aR,9bR)-cis-6-Methoxy-2,3,3a,4,5,9b-hexahydro-[1H]-benz[e]isoindol-1-yl)ethyl]-[1]-9-cyano-benzothieno[3,2-d]pyrimidine-2,4(1H,3H)-dione hydrochloride]",8.74
5,"COc1cccc2c1CC[C@H]1CN(CCn3c(=O)c4sc5ccccc5c4n(C)c3=O)C[C@@H]21 [Example 33, hydrochloride]",6.56
6,"COCCn1c(=O)n(CCN2C[C@@H]3CCc4c(OC)cccc4[C@@H]3C2)c(=O)c2sc3cccnc3c21 [Example 105, hydrochloride]",8.58
7,"COc1cccc2c1CC[C@H]1CN(CCn3c(=O)[nH]c4c(sc5c(Cl)ccnc54)c3=O)C[C@@H]21 [Example 63, 3-[2-((3aR,9bR)-cis-6-Methoxy-2,3,3a,4,5,9b-hexahydro-[1H]-benz[e]isoindol-1-yl)ethyl]-6-chloro-pyrido[2',3':4,5]thieno[3,2-d]pyrimidine-2,4(1H,3H)-dione dihydrochloride]",8.6
8,"COc1cccc2c1[C@@H]1CN(CCCCn3c(=O)[nH]c4c(sc5cccnc54)c3=O)C[C@@H]1CC2 [Example 79, dihydrochloride]",8.77
9,"COc1cccc2c1[C@@H]1CN(CCn3c(=O)[nH]c4c(sc5ccccc54)c3=O)C[C@H]1CC2 (relative stereo) [Example 2, 3-[2-(trans-9-Methoxy-2,3,3a4,5,9b-hexahydro-[1H]-benz[e]isoindol-1-yl)ethyl]-[1]benzothieno[3,2-d]pyrimidine-2,4(1H,3H)-dione hydrochloride]",7.81
10,COc1cccc2c1CC[C@H]1CN(CCn3c(=O)[nH]c4c(sc5cncnc54)c3=O)C[C@@H]21 [Example 41],9.03
11,"COc1cccc2c1[C@@H]1CN(CCCn3c(=O)[nH]c4c(sc5ccccc54)c3=O)C[C@@H]1CC2 (relative stereo) [Example 6, hydrochloride]",6.91
12,"COc1cccc2c1CC[C@@H]1CN(CCn3c(=O)[nH]c4c(sc5cccnc54)c3=O)C[C@H]21 [Example 78, dihydrochloride]",7.8
13,"COc1cccc2c1CC[C@H]1CN(CCn3c(=O)[nH]c4c(sc5c(C#N)cccc54)c3=O)C[C@@H]21 [Example 55, 3-[2-((3aR,9bR)-cis-6-Methoxy-2,3,3a,4,5,9b-hexahydro-[1H]-benz[e]isoindol-1-yl)ethyl]-[1]-6-cyano-benzothieno[3,2-d]pyrimidine-2,4(1H,3H)-dione hydrochloride]",8.11
14,"COc1cccc2c1CC[C@H]1CN(CCn3c(=O)[nH]c4c(sc5ccc(C)cc54)c3=O)C[C@@H]21 [Example 74, 3-[2,((3aR,9bR)-cis-6-Methoxy-2,3,3a,4,5,9b-hexahydro-[1H]-benz[e]isoindol-1-yl)ethyl]-[1]-8-methyl-benzothieno[3,2-d]pyrimidine-2,4(1H,3H)-dione hydrochloride]",8.7
15,"COc1cccc2c1CC[C@H]1CN(CCn3c(=O)[nH]c4c(sc5ncc(-c6ccccc6)nc54)c3=O)C[C@@H]21 [Example 99, hydrochloride]",7.92
16,"COc1cccc2c1CC[C@H]1CN(CCn3c(=O)[nH]c4c(ccc5ncccc54)c3=O)C[C@@H]21 [Example 82, 3-[2-((3aR,9bR)cis-6-Methoxy-2,3,3a,4,5,9b-hexahydro-[1H]-benz[e]isoindol-1-yl)ethyl]-pyrido[2,3-h]quinazoline-2,4(1H,3H)-dione hydrochloride]",9.09
17,"COc1cccc2c1CC[C@H]1CN(CCn3c(=O)[nH]c4c(sc5nc(-c6ccccc6)cnc54)c3=O)C[C@@H]21 [Example 91, hydrochloride]",6.66
18,"COc1cccc2c1CC[C@H]1CN(CCn3c(C)nc4c(sc5ccccc54)c3=O)C[C@@H]21 (relative stereo) [Example 29, dihydrochloride]",7.43
19,"COc1cccc2c1CC[C@H]1CN(CCn3cnc4c(sc5ncccc54)c3=O)C[C@@H]21 [Example 34, 3-[2-((3aR,9bR)-cis-6-Methoxy-2,3,3a,4,5,9b-hexahydro-[1H]-benz[e]isoindol-1-yl)ethyl]-pyrido[3',2':4,51thieno[3,2:d]pyrimidine-4(3H)-one dihydrochloride]",9.15
20,"COc1cccc2c1CC[C@H]1CN(CCn3c(=O)[nH]c4sc5c(c4c3=O)CCCC5)C[C@@H]21 (relative stereo) [Example 7, 3-[2-(cis-6-Methoxy-2,3,3a4,5,9b-hexahydro-[1H]-benz[e]isoindol-1-yl)ethyl]-[1]-5,6,7,8-tetrahydrobenzothieno[2,3-d]pyrimidine-2,4(1H,3H)-dione hydrochloride]",7.85
21,"COc1cccc2c1CC[C@H]1CN(CCn3c(=O)[nH]c4c(sc5ccc(C(=O)N(C)C)cc54)c3=O)C[C@@H]21 [Example 45, hydrochloride]",9.48
22,"COc1cccc2c1CC[C@H]1CN(CCn3c(=O)[nH]c4c5c(sc4c3=O)CCCC5)C[C@@H]21 (relative stereo) [Example 22, hydrochloride]",8.32
23,"COCCn1c(=O)n(CCN2C[C@@H]3CCc4c(OC)cccc4[C@@H]3C2)c(=O)c2sc3nccnc3c21 [Example 104, 3-[2-(cis-(3aR,9bR)-6-Methoxy-2,3,3a,4,5,9b-hexahydro-[1H]-benz[e]isoindol-1-yl)ethyl]-1-(2-methoxyethyl)pyrazino[2',3':4,5]thieno[3,2-d]pyrimidine-2,4(1H,3H)-dione hydrochloride]",9.74
24,"COc1cccc2c1[C@@H]1CN(CCCCn3c(=O)[nH]c4c(sc5nccnc54)c3=O)C[C@@H]1CC2 [Example 80, hydrochloride]",8.08
25,"CCOc1cccc2c1CC[C@H]1CN(CCn3c(=O)[nH]c4c(sc5ncccc54)c3=O)C[C@@H]21 [Example 109, hydrochloride]",8.00
